Here are results for seven compounds from patent US20220265692A1, “ORALLY-ADMINISTERED PHARMACEUTICAL COMPOSITION FOR ERADICATING ANTIBIOTIC-RESISTANT HELICOBACTER PYLORI, COMPRISING COMPLEX OF NON-ABSORBABLE ANTIBIOTIC AND CLAY MINERAL” (priority 2019, published 2022).

Like-named read-outs stand apart in the source and are kept apart here.

Test [1] concerns Helicobacter pylori clinical strains. The test is described as follows: Evaluation of antibiotic resistant rate (in vitro MIC, 187 clinical strains). Format: cell-based. The method, then:
Complexes of antibiotics (amoxicillin, clarithromycin, metronidazole, levofloxacin, and tetracyclin) and smectite which have been actually used for Helicobacter eradication treatment in current clinical trials were prepared and in vitro MIC for non-absorbable antibiotic candidate groups gentamicin, netilmicin, tobramycin, amikacin) to be used as a novel therapeutic agent was measured, and MIC50 and MIC90 were confirmed. To this end, 187 cultured positive clinical strains obtained from 1,265 patient samples were used.

For test [2], the system named is clarithromycin-resistant Helicobacter pylori. Nature of the test: Eradication activity in vitro on clarithromycin-resistant strain (disk). The format is cell-based. The note with it: strain with MIC of CLR 48 mg/L, twice repeated tests. An excerpt:
Clarithromycin-resistant Helicobacter pylori was applied (red) in a medium and then a sample was made in a disk form and placed on the medium to measure the eradication effect. At this time, it was meant that if red disappeared around the disk, there was the eradication effect.

The next test deals with Helicobacter pylori. The following applies: general statement; cited from earlier work.

On to `NCC[C@H](O)C(=O)N[C@@H]1C[C@H](N)[C@@H](O[C@H]2O[C@H](CN)[C@@H](O)[C@H](O)[C@H]2O)[C@H](O)[C@H]1O[C@H]1O[C@H](CO)[C@@H](O)[C@H](N)[C@H]1O` [amikacin], for which, in test [1] (based on MIC 1 μg/ml), the resistant rate is 61.3%. `CCN[C@@H]1C[C@H](N)[C@@H](O[C@H]2OC(CN)=CC[C@H]2N)[C@H](O)[C@H]1O[C@H]1OC[C@](C)(O)[C@H](NC)[C@H]1O` [netilmicin] yielded a resistant rate in test [1] (based on MIC 1 μg/ml) of 1.43%. In the case of `C[C@H]1COc2c(N3CCN(C)CC3)c(F)cc3c(=O)c(C(=O)O)cn1c23` [levofloxacin], the resistant rate in test [1] came out at 37.2%.

Take `CC[C@H]1OC(=O)[C@H](C)[C@@H](O[C@H]2C[C@@](C)(OC)[C@@H](O)[C@H](C)O2)[C@H](C)[C@@H](O[C@@H]2O[C@H](C)C[C@H](N(C)C)[C@H]2O)[C@](C)(OC)C[C@@H](C)C(=O)[C@H](C)[C@@H](O)[C@]1(C)O` [clarithromycin]: the “eradication effect on clarithromycin-resistant H. pylori (clear zone around disk)” value in test [2] is on record as “the clear zone was not shown”. The same compound displayed a resistant rate in test [1] of 29.8%. The compound `NC[C@H]1O[C@H](O[C@H]2[C@H](O)[C@@H](O[C@H]3O[C@H](CO)[C@@H](O)[C@H](N)[C@H]3O)[C@H](N)C[C@@H]2N)[C@H](N)C[C@@H]1O` [tobramycin] came in with a resistant rate in test [1] (based on MIC 1 μg/ml) of 36.3%. Turning to `CC1(C)S[C@@H]2[C@H](NC(=O)[C@H](N)c3ccc(O)cc3)C(=O)N2[C@H]1C(=O)O` [Amoxicilin, amoxicillin], the resistance entry in the test on Helicobacter pylori was “less than 10%”. Take gentamicin: the resistant rate in test [1] (based on MIC 1 μg/ml) stood at 2.78%.
